What was measured:
[1] = Particle size of Luc DNA-encapsulated lipid nanoparticles; type: physicochemical; conditions: cationic lipid:DPPC:cholesterol:GM-020=60:10.6:28:1.4 molar ratio
Description: The particle size of the lipid particle (in the composition) can be measured by a known approach. For example, the particle size can be calculated as a Z-average particle size by the cumulant analysis of an autocorrelation function using a particle size measurement apparatus Zetasizer Nano ZS (Malvern Instruments) based on a dynamic light scattering measurement technique. The particle size (average particle size) of the lipid particle (in the composition) is, for example, 10 to 200 nm, preferably 60 to 170 nm.
(§1) A lipid mixture containing a cationic lipid of the Examples shown in Table 2 (cationic lipid:DPPC:cholesterol:GM-020=60:10.6:28:1.4, molar ratio) was dissolved in 90% of EtOH and 10% of water to obtain a 15.0 mg/ml lipid solution. Luciferase (luc) DNA (manufactured by Nature Technology Corp.) was dissolved in a 10 mM MES buffer solution (pH 5.5) to obtain a 0.3 mg/ml nucleic acid solution. The obtained lipid solution and nucleic acid solution were mixed at a flow rate ratio of 3 ml/min:6 ml/min at room temperature using NanoAssemblr (manufactured by Precision NanoSystems Inc.) to obtain a dispersion containing Luc DNA-encapsulated lipid nanoparticles. The obtained dispersion was dialyzed against water at room temperature for 1 hour and against PBS at 4° C. for 23 hours using Slyde-A-Lyzer (molecular weight cutoff: 20 K, Thermo Fischer Scientific Inc.). Subsequently, the dialysate was filtered through a 0.2 µm syringe filter (Iwaki). A 60% solution of sucrose in PBS was added thereto, and the mixture was preserved as a 20% solution of sucrose in PBS at −80° C. Analysis results of particle size and rate of encapsulation of the Luc DNA-encapsulated lipid nanoparticles are also shown in Table 2.

[2] = Rate of encapsulation of Luc DNA in lipid nanoparticles; type: physicochemical; parameters: unit: %; conditions: Luc DNA-encapsulated lipid nanoparticles; cationic lipid:DPPC:cholesterol:GM-020=60:10.6:28:1.4 molar ratio
Description: The concentration and rate of encapsulation of the nucleic acid (e.g., siRNA or mRNA) in the composition of the present invention can be measured by a known approach. For example, the nucleic acid is fluorescently labeled using Quant-iT™ RiboGreen® (Invitrogen Corp.), and the fluorescence intensity can be measured to determine the concentration and the rate of encapsulation. The concentration of the nucleic acid in the composition can be calculated using a calibration curve prepared from aqueous nucleic acid solutions having known concentrations. The rate of encapsulation can be calculated on the basis of the difference in fluorescence intensity between the presence and absence of addition of Triton-X 100 (surfactant for disrupting the lipid particle). The concentration of the nucleic acid in the composition refers to the total concentration of a nucleic acid encapsulated in the lipid particle and an unencapsulated nucleic acid. The rate of encapsulation refers to the ratio of the nucleic acid encapsulated in the lipid particle to all nucleic acids in the composition.
as §1

[3] = system: ICrl:CD1 (ICR) mice; experiment: Mouse bioluminescence imaging evaluation (Test Example 1); type: in vivo; conditions: Luc DNA-encapsulated lipid nanoparticles 10 mL/kg i.v. to ICR mice; IVIS total flux 15 minutes after luciferin i.p.
Procedure: The Luc DNA-encapsulated lipid nanopatricles obtained in the aforesaid Production Example were intravenously administered to the tails of ICrl:CD1 (ICR) mice (10 mL/kg i.v.). After administration of the lipid particles, luciferin (15 mg/mL) was administered to the mice (10 mL/kg i.p.), which were loaded in an IVIS (in vivo imaging system) apparatus (manufactured by PerkinElmer, Inc.) under isoflurane inhalation anesthesia. Luminescence images of the mice were taken ventrally (in a supine position) 15 minutes after luciferin administration. The luminescence was digitized with the software of IVIS, followed by evaluation using the value of total flux. Higher luminescence means strong expression of the protein encoded by the DNA encapsulate in the lipid particle. In Table 2, higher luminescence is indicated on a scale of A, B and C in order. A represents luminescence of 3.0E+07 or more, B represents luminescence of 1.0E+0.7 or more and less than 3.0E+07, and C represents luminescence of less than 1.0E+07.

Compound | Particle size (nm) [1] | Rate of encapsulation [2] | Luminescence [3]
CCCCCC(CCCCC)CC(=O)OCC(COC(=O)CCCCCCCCCCC(=O)OC)(COC(=O)CCCCCCCCCCC(=O)OC)COC(=O)CCCN(C)C [Example 77, 1,1′-[2-({[4-(Dimethylamino)butanoyl]oxy}methyl)-2-{[(3-pentyloctanoyl)oxy]methyl}propane-1,3-diyl] 12,12′-dimethyl didodecanedioate] | 128.7 nm | 73.5 | B (B represents luminescence of 1.0E+0.7 or more and less than 3.0E+07)
CCCCCCCOC(=O)CCCCC(=O)OCC(COC(=O)CCCCC(=O)OCCCCCCC)(COC(=O)CCCN(C)C)COC(=O)C(CCCCC)CCCCC [Example 83, 1,1′-[2-({[4-(Dimethylamino)butanoyl]oxy}methyl)-2-{[(2-pentylheptanoyl)oxy]methyl}propane-1,3-diyl] 6,6′-diheptyl dihexanedioate] | 148.7 nm | 92.9 | B (B represents luminescence of 1.0E+0.7 or more and less than 3.0E+07)
CCCCCCCOC(=O)CCCCC(=O)OCC(COC(=O)CCCCC(=O)OCCCCCCC)(COC(=O)CCCN(C)C)COC(=O)CC(CCCC)CCCC [Example 84, 1,1′-[2-{[(3-Butylheptanoyl)oxy]methyl}-2-({[4-(dimethylamino)butanoyl]oxy}methyl)propane-1,3-diyl] 6,6′-diheptyl dihexanedioate] | 172.6 nm | 93.5 | B (B represents luminescence of 1.0E+0.7 or more and less than 3.0E+07)
CCCCCCCOC(=O)CCCCC(=O)OCC(COC(=O)CCCCC(=O)OCCCCCCC)(COC(=O)CCCN(C)C)COC(=O)CC(CCCCCC)CCCCCC [Example 85, 1,1′-[2-({[4-(Dimethylamino)butanoyl]oxy}methyl)-2-{[(3-hexylnonanoyl)oxy]methyl}propane-1,3-diyl] 6,6′-diheptyl dihexanedioate] | 148.3 nm | 95.4 | B (B represents luminescence of 1.0E+0.7 or more and less than 3.0E+07)
CCCCCCCOC(=O)CCCCC(=O)OCC(COC(=O)CCCCC(=O)OCCCCCCC)(COC(=O)CCCN(CC)C(C)C)COC(=O)CC(CCCCC)CCCCC [Example 91, 1,1′-(2-[({4-[Ethyl(propan-2-yl)amino]butanoyl}oxy)methyl]-2-{[(3-pentyloctanoyl)oxy]methyl}propane-1,3-diyl] 6,6′-diheptyl dihexanedioate] | 111.9 nm | 96.5 | B (B represents luminescence of 1.0E+0.7 or more and less than 3.0E+07)
CCCCCCCOC(=O)CCCCC(=O)OCC(COC(=O)CCCCC(=O)OCCCCCCC)(COC(=O)CCCN(C(C)C)C(C)C)COC(=O)CC(CCCCC)CCCCC [Example 92, 1,1′-(2-[({4-[di(Propan-2-yl)amino]butanoyl}oxy)methyl]-2-{[(3-pentyloctanoyl)oxy]methyl}propane-1,3-diyl] 6,6′-diheptyl dihexanedioate] | 125.7 nm | 94.1 | B (B represents luminescence of 1.0E+0.7 or more and less than 3.0E+07)
CCCCCCCOC(=O)CCCCC(=O)OCC(COC(=O)CCCCC(=O)OCCCCCCC)(COC(=O)CCCN(C)CCCO)COC(=O)CC(CCCCC)CCCCC [Example 94, 1,1′-Diheptyl 6,6′-(2-[({4-[(3-hydroxypropyl)(methyl)amino]butanoyl}oxy)methyl]-2-{[(3-pentyloctanoyl)oxy]methyl}propane-1,3-diyl) dihexanedioate] | 129.4 nm | 93.0 | C (C represents luminescence of less than 1.0E+07)
CCCCCC(CCCCC)COC(=O)CCC(=O)OCC(COC(=O)CCCN(C)C)(COC(=O)CCC(=O)OCC(CCCCC)CCCCC)COC(=O)CC(CCCCC)CCCCC [Example 95, 1,1′-[2-({[4-(Dimethylamino)butanoyl]oxy}methyl)-2-{[(3-pentyloctanoyl)oxy]methyl}propane-1,3-diyl] 4,4′-bis(2-pentylheptyl) dibutanedioate] | 82.6 nm | 99.1 | B (B represents luminescence of 1.0E+0.7 or more and less than 3.0E+07)
CCCCCC(CCCCC)COC(=O)CCC(=O)OCC(COC(=O)CCCN(C)C)(COC(=O)CC(CCCCC)CCCCC)COC(=O)CC(CCCCC)CCCCC [Example 96, 2-({[4-(Dimethylamino)butanoyl]oxy}methyl)-3-[(3-pentyloctanoyl)oxy]-2-{[(3-pentyloctanoyl)oxy]methyl}propyl 2-pentylheptyl butanedioate] | 74.2 nm | 98.8 | B (B represents luminescence of 1.0E+0.7 or more and less than 3.0E+07)
CCCCCCCCCOC(=O)CCC(=O)OCC(COC(=O)CCCN(C)C)(COC(=O)CCC(=O)OCCCCCCCCC)COC(=O)CC(CCCCC)CCCCC [Example 97, 1,1′-[2-({[4-(Dimethylamino)butanoyl]oxy}methyl)-2-{[(3-pentyloctanoyl)oxy]methyl}propane-1,3-diyl] 4,4′-dinonyl dibutanedioate] | 118.7 nm | 97.8 | A (A represents luminescence of 3.0E+07 or more)
CCCCCCCCOC(=O)CCCC(=O)OCC(COC(=O)CCCC(=O)OCCCCCCCC)(COC(=O)CCCN(C)C)COC(=O)CC(CCCCC)CCCCC [Example 98, 1,1′-[2-({[4-(Dimethylamino)butanoyl]oxy}methyl)-2-{[(3-pentyloctanoyl)oxy]methyl}propane-1,3-diyl] 5,5′-dioctyl dipentanedioate] | 140.5 nm | 96.3 | A (A represents luminescence of 3.0E+07 or more)
CCCCCCOC(=O)CCCCCC(=O)OCC(COC(=O)CCCCCC(=O)OCCCCCC)(COC(=O)CCCN(C)C)COC(=O)CC(CCCCC)CCCCC [Example 99, 1,1′-[2-({[4-(Dimethylamino)butanoyl]oxy}methyl)-2-{[(3-pentyloctanoyl)oxy]methyl}propane-1,3-diyl] 7,7′-dihexyl diheptanedioate] | 153.8 nm | 92.4 | A (A represents luminescence of 3.0E+07 or more)
CCCCCCCCCOC(=O)CCC(=O)OCC(COC(=O)CCCN(CC)C(C)C)(COC(=O)CCC(=O)OCCCCCCCCC)COC(=O)CC(CCCCC)CCCCC [Example 100] | 141.8 nm | 94.9 | B (B represents luminescence of 1.0E+0.7 or more and less than 3.0E+07)
CCCCCCCCOC(=O)CCCC(=O)OCC(COC(=O)CCCC(=O)OCCCCCCCC)(COC(=O)CCCN(CC)C(C)C)COC(=O)CC(CCCCC)CCCCC [Example 101, 1,1′-(2-[({4-[Ethyl(propan-2-yl)amino]butanoyl}oxy)methyl]-2-{[(3-pentyloctanoyl)oxy]methyl}propane-1,3-diyl) 5,5′-dioctyl dipentanedioate] | 137.2 nm | 93.2 | A (A represents luminescence of 3.0E+07 or more)
